Measured values reported in patent publication US20250018049A1, “COMPOUNDS FOR DEGRADING CYCLIN-DEPENDENT KINASE 2 VIA UBIQUITIN PROTEOSOME PATHWAY” (NIKANG THERAPEUTICS, INC., priority 2020, published 2025).

Tests used:
CDK2 [1] = target: T1, CDK2 (Homo sapiens, UniProt P24941); assay: NanoBRET CDK2 engagement assay; format: cell-based; parameters: expressed in transfected cells; details: OVCAR3 cells with stable CDK2-Luciferase vector, 24 hours treatment
Method: OVCAR3 cells with stable transfection of CDK2-Luciferase vector were seeded into 96-well plate at a density of 20,000 cells per well, 50 μL Opti-MEM medium supplemented with 1% FBS. Following morning, cells were treated with compounds of the disclosure, with starting concentration at 3 μM and ½ log dilution down to 0.3 nM for 24 hours at 37° C. DMSO treatment serves as control. Compound engagement was then measured using NanoBRE™ Kinase Kit from Promega (Part Number: CS1810C122, NanoBRET™ TE Kinase Kit #10, 1K) following manufacturer's instruction. For 24 hours treatment, tracer was added only for the last 2 hours. Briefly, 2.5 μL of complete 20× NanoBRET Tracer was added to the cells in suspension. Immediately prior to BRET measurements, prepare 3× Complete NanoBRET® Nano-Glo® Substrate in Opti-MEM without serum and phenol red. Without any delay, 25 μL per well of 3× Complete NanoBRET™ Nano-Glo® Substrate for a 96-well plate was added and mixed well. Signal was then read on a CLARIOstar® plate reader (measure donor emission (e.g., 450 nm) and acceptor emission (e.g., 610 nm or 630 nm) using a NanoBRET™-compatible luminometer. Target engagement was calculated with DMSO treatment as 100% signal, and IC50 was calculated by GraphPad Prism 9.

CDK2 [2] = target: T1, CDK2; assay: Phospho-Rb HTRF measurement in OVCAR3 cells (inhibition of CDK2); format: cell-based; parameters: High-Throughput Measurement of Cellular Endogenous CDK2; endogenous in cells; host or cells: OVCAR3; details: pRB(S807/811) assay, 24 h compound treatment
Method: Phosphorylation of RB protein at S780 and S807/811 were measured using HTRF phospho-RB cellular kits (Cat #64RBS780PEG and 64RBS807PEG) from Cisbio.
On Day 1, OVCAR3 or KYSE520 cells were seeded into 96-well tissue-culture treated plates at 20,000 cells/well in 200 μL and incubated overnight at 37° C. in CO2 atmosphere. On Day 2, the cells were treated with test compounds at concentrations from 0.3 to 10,000 nM using HP D300 digital dispenser. Twenty-four hours after compound treatment, cell culture media was removed by flicking the plate and tapping the plate against clean paper towel. Immediately 30 μL 1× lysis buffer was supplemented from the kit and the plate was incubated at room temperature on shaker for 30 min. After homogenization by pipetting up and down, 8 μL cell lysate from 96-well cell culture plate was transferred to 384-well small volume white detection plate. 2 μL premixed detection solution was added and the plate was covered with sealer. To prepare the detection solution, d2 conjugated-phospho-RB antibody and Eu-cryptate conjugated phosphor-RB antibody were diluted into detection buffer following manufacturer's instruction. Detection plates were incubated for 4 h at room temperature and read on ClarioStar (BMG Labtech) in TR-FRET mode (665 nM and 620 nM). The TR-FRET ratio (665 nM/620 nM) was plotted against the compound concentration and normalized to DMSO controls. Half maximal inhibition concentration (IC50) values are calculated with a four-parameter logistic fit using GraphPad Prism (version 8; La Jolla, CA).

| SMILES | IC50 (CDK2 [1]) [nM] | IC50 (CDK2 [2]) [nM] |
| --- | --- | --- |
| CN(C1CCN(Cc2cccc3c2n(C)c(=O)n3C2CCC(=O)NC2=O)CC1)S(=O)(=O)N1CCC(Nc2ncc3ccc(=O)n(C4CCCC4)c3n2)CC1 (centres unmarked) [Compound 20, 4-((8-cyclopentyl-7-oxo-7,8-dihydropyrido[2,3-d]pyrimidin-2-yl)amino)-N-(1-((1-(2,6-dioxo-piperidin-3-yl)-3-methyl-2-oxo-2,3-dihydro-1H-benzo[d]imidazol-4-yl)methyl)piperidin-4-yl)-N-methylpiperidine-1-sulfonamide] | 127 | 1170 |
| CN(C[C@H]1CN(CCCc2cccc3c2n(C)c(=O)n3C2CCC(=O)NC2=O)CCO1)S(=O)(=O)N1CCC(Nc2ncc3ccc(=O)n(C4CCCC4)c3n2)CC1 (stereo partly drawn) [Compound 24, 4-((8-cyclopentyl-7-oxo-7,8-dihydropyrido[2,3-d]pyrimidin-2-yl)amino)-N-(((2R)-4-(3-(1-(2,6-dioxopiperidin-3-yl)-3-methyl-2-oxo-2,3-dihydro-1H-benzo[d]imidazol-4-yl)propyl)morpholin-2-yl)methyl)-N-methylpiperidine-1-sulfonamide] | 169 | 194 |
| O=C1CCC(N2Cc3c(OCCN4CC(Oc5cccc(S(=O)(=O)N6CCC(Nc7ncc8ccc(=O)n(C9CCCC9)c8n7)CC6)c5)C4)cccc3C2=O)C(=O)N1 (centres unmarked) [Compound 27, 3-(4-(2-(3-(3-((4-((8-cyclopentyl-7-oxo-7,8-dihydropyrido[2,3-d]pyrimidin-2-yl)amino)-piperidin-1-yl)sulfonyl)phenoxy)azetidin-1-yl)-ethoxy)-1-oxoisoindolin-2-yl)piperidine-2,6-dione] | 334 | 882 |
| O=C1CCC(N2Cc3c(OCCN4CCC(Oc5cccc(S(=O)(=O)N6CCC(Nc7ncc8ccc(=O)n(C9CCCC9)c8n7)CC6)c5)CC4)cccc3C2=O)C(=O)N1 (centres unmarked) [Compound 29, 3-(4-(2-(4-(3-((4-((8-cyclopentyl-7-oxo-7,8-dihydropyrido[2,3-d]pyrimidin-2-yl)amino)-piperidin-1-yl)sulfonyl)phenoxy)piperidin-1-yl)ethoxy)-1-oxoisoindolin-2-yl)piperidine-2,6-dione] | 426 | 216 |
| Cn1c(=O)n(C2CCC(=O)NC2=O)c2cccc(C3CCN(C4CCN(S(=O)(=O)N5CCC(Nc6ncc7ccc(=O)n(C8CCCC8)c7n6)CC5)CC4)CC3)c21 (centres unmarked) [Compound 31, 3-(4-(1′-((4-((8-cyclopentyl-7-oxo-7,8-dihydro-pyrido[2,3-d]pyrimidin-2-yl)amino)piperidin-1-yl)sulfonyl)-[1,4′-bipiperidin]-4-yl)-3-methyl-2-oxo-2,3-dihydro-1H-benzo[d]imidazol-1-yl)piperidine-2,6-dione] | 64 | 294 |
| Cn1c(=O)n(C2CCC(=O)NC2=O)c2cccc(C3CCN(C4CC5(C4)CN(S(=O)(=O)N4CCC(Nc6ncc7ccc(=O)n(C8CCCC8)c7n6)CC4)C5)CC3)c21 (centres unmarked) [Compound 32, 3-(4-(1-(2-((4-((8-cyclopentyl-7-oxo-7,8-dihydro-pyrido[2,3-d]pyrimidin-2-yl)amino)piperidin-1-yl)sulfonyl)-2-azaspiro[3.3]heptan-6-yl)piperidin-4-yl)-3-methyl-2-oxo-2,3-dihydro-1H-benzo[d]imidazol-1-yl)piperidine-2,6-dione] | 59 | 317 |
| Cn1c(=O)n(C2CCC(=O)NC2=O)c2cccc(C3CN(Cc4cccc(S(=O)(=O)N5CCC(Nc6ncc7ccc(=O)n(C8CCCC8)c7n6)CC5)c4)C3)c21 (centres unmarked) [Compound 40, 3-(4-(1-(3-((4-((8-cyclopentyl-7-oxo-7,8-dihydropyrido[2,3-d]pyrimidin-2-yl)amino)piperidin-1-yl)sulfonyl)benzyl)azetidin-3-yl)-3-methyl-2-oxo-2,3-dihydro-1H-benzo[d]imidazol-1-yl)piperidine-2,6-dione] | 297 | 135 |
| O=C1CCC(N2C(=O)c3cc(F)c(N4CCN(Cc5cc(F)cc(S(=O)(=O)N6CCC(Nc7ncc8ccc(=O)n(C9CCCC9)c8n7)CC6)c5)CC4)cc3C2=O)C(=O)N1 (centres unmarked) [Compound 43, 5-(4-(3-((4-((8-cyclopentyl-7-oxo-7,8-dihydro-pyrido[2,3-d]pyrimidin-2-yl)amino)piperidin-1-yl)sulfonyl)-5-fluorobenzyl)piperazin-1-yl)-2-(2,6-dioxopiperidin-3-yl)-6-fluoroisoindoline-1,3-dione] | 401 | 465 |
| O=C1CCC(N2C(=O)c3cc(F)c(N4CCN(Cc5cccc(S(=O)(=O)N6CCC(Nc7ncc8cc(C(F)F)c(=O)n(C9CCCC9)c8n7)CC6)c5)CC4)cc3C2=O)C(=O)N1 (centres unmarked) [Compound 45, 5-(4-(3-((4-((8-cyclopentyl-6-(difluoromethyl)-7-oxo-7,8-dihydropyrido[2,3-d]pyrimidin-2-yl)-amino)piperidin-1-yl)sulfonyl)-benzyl)piperazin-1-yl)-2-(2,6-dioxopiperidin-3-yl)-6-fluoro-isoindoline-1,3-dione] | 378 | 267 |
| N#Cc1cc2cnc(NC3CCN(S(=O)(=O)c4cccc(CN5CCN(c6cc7c(cc6F)C(=O)N(C6CCC(=O)NC6=O)C7=O)CC5)c4)CC3)nc2n(C2CCCC2)c1=O (centres unmarked) [Compound 46, 8-cyclopentyl-2-((1-((3-((4-(2-(2,6-dioxopiperidin-3-yl)-6-fluoro-1,3-dioxoisoindolin-5-yl)piperazin-1-yl)methyl)phenyl)sulfonyl)piperidin-4-yl)-amino)-7-oxo-7,8-dihydropyrido[2,3-d]-pyrimidine-6-carbonitrile] | 2160 | 2920 |
| O=C1CCC(N2C(=O)c3cc(F)c(N4C5CCC4CN(Cc4cccc(S(=O)(=O)N6CCC(Nc7ncc8ccc(=O)n(C9CCCC9)c8n7)CC6)c4)C5)cc3C2=O)C(=O)N1 (centres unmarked) [Compound 47, 5-(3-(3-((4-((8-cyclopentyl-7-oxo-7,8-dihydro-pyrido[2,3-d]pyrimidin-2-yl)amino)piperidin-1-yl)sulfonyl)benzyl)-3,8-diazabicyclo[3.2.1]octan-8-yl)-2-(2,6-dioxopiperidin-3-yl)-6-fluoro-isoindoline-1,3-dione] | 590 | 4030 |
| O=C1CCC(N2C(=O)c3cc(F)c(N4CC5CCC(C4)N5Cc4cccc(S(=O)(=O)N5CCC(Nc6ncc7ccc(=O)n(C8CCCC8)c7n6)CC5)c4)cc3C2=O)C(=O)N1 (centres unmarked) [Compound 49, 5-(8-(3-((4-((8-cyclopentyl-7-oxo-7,8-dihydro-pyrido[2,3-d]pyrimidin-2-yl)amino)piperidin-1-yl)sulfonyl)benzyl)-3,8-diazabicyclo[3.2.1]octan-3-yl)-2-(2,6-dioxopiperidin-3-yl)-6-fluoroi-soindoline-1,3-dione] | 272 | 836 |
| O=C1CCC(N2Cc3cc(N4C5CCC4CN(Cc4cccc(S(=O)(=O)N6CCC(Nc7ncc8ccc(=O)n(C9CCCC9)c8n7)CC6)c4)C5)ccc3C2=O)C(=O)N1 (centres unmarked) [Compound 52, 3-(5-(3-(3-((4-((8-cyclopentyl-7-oxo-7,8-dihydropyrido[2,3-d]pyrimidin-2-yl)amino)-piperidin-1-yl)sulfonyl)benzyl)-3,8-diazabicyclo-[3.2.1]octan-8-yl)-1-oxoisoindolin-2-yl)piperidine-2,6-dione] | 499 | 1420 |
